Consider 7 molecules from patent US12358880B2, “1,4-bis-(2-hydroxy-benzyl)-1,4,7-triazacyclononane derivatives and similar compounds as ligands in iron(III) complexes for use as MRI contrast agents” (BRACCO IMAGING S.P.A., priority 2022, dated 2025).

Read-outs that look alike come from different tables or passages of the source. Marks after values point to notes of the source that are not given here.

The conditions of data set [1]: 0.15M NaNO3; from Baranyai et al., Chem. Sci. 2021; cited from earlier work.
Data set [2] is described as follows: Protonation constants of the Fe(III) complexes (pH-potentiometry / UV spectrophotometry). The format is physicochemical. On the procedure:
The protonation constants (KMHiLigand=[MHiLigand]/([MHi-1Ligand]×[H^+])) of the Fe(III) complexes of Compound 2, of Compound 4, of NOTA (comparative), and of HBED (comparative) were determined by pH-potentiometric and/or by spectrophotometric studies.
In particular, the protonation constants of the Fe(NOTA) and Fe(HBED) complexes were determined using pH-potentiometry by titrating the pre-prepared complexes from pH=1.7 to pH=12.0 with 0.2 M NaOH([FeL]=0.002 M). For the pH measurements and titrations, Metrohm 888 Titrando titration workstation Metrohm-6.0234.110 combined electrode was used. Equilibrium measurements were carried out at a constant ionic strength (0.15 M NaNO3 or NaClO4) in 6 ml samples at 25° C. The solutions were stirred, and N2 was bubbled through them. The titrations were made in the pH range of 1.7-12.0. KH-phthalate (pH=4.005) and borax (pH=9.177) buffers were used to calibrate the pH meter. For the calculation of [H^+] from the measured pH values, the method disclosed in Irving et al. Anal. Chim. Acta, 1967, 38, 475-488 was used as follows: a 0.01M HNO3 or HClO4 solution was titrated with a standardized NaOH solution at 0.15 M NaNO3 ionic strength. The differences (A) between the measured (pHread) and calculated pH (−log [H^+]) values were used to obtain the equilibrium H^+ concentration from the pH values measured in the titration experiments (A=0.02 for 0.15 M NaNO3, 0.01 for 0.15 M NaClO4). For the equilibrium calculations, the stoichiometric water ionic product (pKw) was also needed to calculate [OH^−] values under basic conditions. The VNaOH-pHread data pairs of the HNO3—NaOH titration obtained in the pH range 10.5-12.0 were used to calculate the pKw value (pKw=13.76).
The protonation constants of Fe(Compound 2) and Fe(Compound 4) complexes were determined by UV spectrophotometry analysis in the wavelength range of 210-700 nm ([Fe(Compound 2)]=43 μM, [Fe(Compound 4)]=100 μM, 0.15 M NaClO4, 25° C.) according to the method disclosed in Example 11A above.

A short description of data set [3]: Kinetic inertness: transchelation reactions with excess HBED as exchanging ligand. The format is physicochemical. On the procedure: To obtain data relating to the kinetic inertness of Fe(Compound 2), Fe(Compound 4) and Fe(NOTA) (comparative), the transchelation reactions (schematized below) were investigated by VIS-spectrophotometry (for Fe(Compound 4) and Fe(NOTA), comparative) and by Capillary Zone Electrophoresis (CZE) (for Fe(Compound 2)) in the presence of a large excess of HBED as an exchanging ligand (Fe(Compound 2): [Fe(Compound 2)]=87 μM, [HBED]=0.1 and 0.2 M, 1.0 M NaClO4, 25° C.; Fe(Compound 4): [Fe(Compound 4)]=100 μM, [HBED]=0.002 and 0.02 M, 0.15 M NaNO3, 25° C. Fe(NOTA): [Fe(NOTA)]=0.2 mM, [HBED]=2.0 and 4.0 mM, 0.15 M NaNO3, 25° C.) in order to guarantee the pseudo-first order kinetic conditions. FeL+HBED ? Fe(HBED)+L with L=Compound 2, Compound 4 or NOTA. A) Determination of Kinetic Inertness of Fe(III) Complexes
The transchelation reactions of Fe(Compound 4) and Fe(NOTA) (comparative) were studied by spectrophotometry, following the formation of the resulting Fe(HBED) complex at 472 and 470 nm with PerkinElmer Lambda 365 UV-Vis spectrophotometer. The concentration of the Fe(Compound 4) and Fe(NOTA) complex was 0.1 and 0.2 mM, while the concentration of the HBED was 10-200 times higher, in order to guarantee pseudo-first-order conditions. The temperature was maintained at 25° C. and the ionic strength of the solutions was kept constant, 0.15 M for NaNO3. The exchange rates were studied in the pH range about 9.5-14.0. Buffer was not used since the excess of HBED was able to maintain the constant pH values at pH<12. […] The pseudo-first-order rate constants (kd) were calculated by fitting of the absorbance—time data pairs to Equation 2.
[formula] where At, A0 and Ap are the absorbance values at time t, the start of the reaction and at equilibrium, respectively. […] The pseudo-first-order rate constants (kd) were calculated by fitting the area-time data pairs to Equation 2 above, where At, A0 and Ap are the area values at time t, the start of the reaction and at equilibrium, respectively. […]

The conditions of data set [4]: for pFe (−log [Fe^3+]free, conditional stability): 10 µM, pH 7.4.
Method: (§1) To assess the thermodynamic stability of the Fe(III) complexes of the invention, as well as of comparative ones, the protonation constants of the respective ligands first, and then of the Fe(III) complexes, were determined by pH-potentiometry and/or by UV spectrophotometry. Finally, based on the protonation constants, the thermodynamic stability constant of the Fe(III) complexes of the invention were determined by observing the competition reaction between the Fe(III) complexes and the N,N′-bis(2-hydroxybenzyl)ethylenediamine-N,N′-diacetic acid (HBED) ligand using capillary zone electrophoresis (CZE) for Compound 2 and Vis spectrophotometry for Compound 4.
(§2) The thermodynamic stability constants (KMLigand=([MLigand]/([M]×[Ligand])) of the Fe(III) complexes were determined as follows.
(§3) The stability constant of the Fe(NOTA) complex was determined by spectrophotometry studies of the Fe^3+-NOTA system at the absorption band of Fe^III complexes at [H^+]=0.01-3.0 M in the wavelength range of 350-800 nm. The concentrations of Fe^3+ and NOTA were 0.002 M. The H^+ concentration in the samples was adjusted with the addition of calculated amounts of a 6 M solution of HNO3 (I=[Na^+]+[H^+]=0.15, [H^+]≤0.15 M). The samples were kept at 25° C. for two weeks.
(§4) The absorbance values of the samples were determined at 11 wavelengths (370, 380, 390, 395, 400, 405, 410, 415, 420, 425 and 430 nm). For the calculations of the thermodynamic stability constant of the Fe(NOTA), the molar absorptivities of Fe^3+ and Fe(NOTA) were determined by recording the spectra of 1.0×10^−3, 1.5×10^−3, 2.0×10^−3 and 2.5×10^−3 M solutions of Fe^3+ and Fe(NOTA) solutions. The absorption spectra of the Fe(NOTA) solutions were recorded in the pH range of 1.7-7.5. All spectrophotometric measurements were performed at 25° C. in 0.15 M NaNO3 solution. The pH was adjusted by stepwise addition of concentrated NaOH or HNO3 solutions.
(§5) The stability constants of the Fe(HBED) complex was determined by following the competition reaction between HBED and NOTA ligands for Fe^3+-ion with spectrophotometry at the absorption band of Fe(HBED) complex in the wavelength range of 400-700 nm. […] The time needed to reach the equilibria was determined by spectrophotometry. The absorbance values of the samples were determined at the absorption band of the Fe(HBED) complex ([Fe(HBED)]-species predominates at pH=5.0). For the calculations of the thermodynamic stability constants of the Fe(HBED) complexes, the molar absorptivities of [Fe(HBED)]-species were determined by recording the spectra of 0.5, 0.1 and 0.2 mM solutions of [Fe(HBED)]^− at pH=5 in the presence of 0.15 M NaNO3. […] The thermodynamic stability constants were calculated with the PSEQUAD program. […]
A short description of data set [5]: Thermodynamic stability of the Fe(III) complexes (competition with HBED/NOTA, CZE or spectrophotometry). The settings on record: Spectrophotometry, 0.15M NaNO3, 25° C.
Method: as §1, §2, §3, §4, §5
The conditions of data set [6]: 60 MHZ, 40° C. in PBS buffer; cited from earlier work.
[7] abbreviates: Spectrophotometry, 0.15M NaClO4, 25° C.
Where [8] appears, read: 0.15M NaNO3, 25° C., spectrophotometry.
Setting [9] is: pH-potentiometry, 0.15M NaNO3, 25° C.

In the case of `O=C(O)CN(CC(=O)O)C1CCCCC1N(CC(=O)O)CC(=O)O` (stereo not drawn) [CDTA, trans-cyclohexane diamine tetraacetic acid], in data set [1], the “kd (s^−1) at pH = 7.4 (dissociation rate constant)” value (shortened to “kd”) is on record as 2.1 × 10^−9 s^−1.
Regarding `Cc1cc(CNC(CO)CO)c(O)c(CN2CCN(Cc3cc(C)cc(CNC(CO)CO)c3O)CCN(Cc3cc(C)cc(CNC(CO)CO)c3O)CC2)c1` [Compound 2, 2,2′,2″-{1,4,7-triazonane-1,4,7-triyltris[methylene(2-hydroxy-5-methyl-3,1-phenylene)methyleneazanediyl]}tri(propane-1,3-diol)], in data set [2] (setting [7]), the “FeH2L (protonation constant of the Fe(III) complex)” value is 9.47 (1)^b, the “FeH3L (protonation constant of the Fe(III) complex)” value is 7.82 (5)^b and the “FeHL (protonation constant of the Fe(III) complex)” value (from here on “FeHL”) is recorded as 10.53 (4)^b. Moreover, in data set [3] (1.0M NaClO4, 25° C., CZE, extrapolated from data at pH>9.0), the “kd” value is on record as 1.9 × 10^−9 s^−1. Also, the “pFe (−log [Fe^3+]free, conditional stability)” value in data set [4] is recorded as 32.4. For the same molecule, in data set [4] (4 weeks, 87 µM, pH 11), the “FeL (thermodynamic stability constant, log KFeL)” value is on record as 44.0 (3).
For `Cc1cc(CNC(CO)CO)c(O)c(CN2CCNCCN(Cc3cc(C)cc(CNC(CO)CO)c3O)CC2)c1` [Compound 4, 2,2′-{1,4,7-triazonane-1,4-diylbis[methylene(2-hydroxy-5-methyl-3,1-phenylene)methyleneazanediyl]}di(propane-1,3-diol)], in data set [2] (setting [7]), the “FeH2L (protonation constant of the Fe(III) complex)” value was 6.02 (1)^b, the “FeHL” value is listed as 8.82 (1)^b and the “FeLH−1 (protonation constant of the Fe(III) complex)” value is 10.12 (1)^b. For the same molecule, the “kd” value in data set [3] (setting [8]) is given as 3.4 × 10^−8 s^−1. The “pFe (−log [Fe^3+]free, conditional stability)” value in data set [4] worked out at 26.5.
`O=C(O)CN(CCN(CC(=O)O)CC(=O)O)CC(=O)O` [EDTA]: in data set [1], the “kd” value was 2.9 × 10^−6 s^−1.
In the case of `O=C([O-])CN(CCN(CC(=O)[O-])Cc1ccccc1[O-])Cc1ccccc1[O-].[Fe+3]` [Fe(HBED)], the “FeL (thermodynamic stability constant, log KFeL)” value in data set [5] is 40.2.
Consider `O=C(O)CN(CCN(CC(=O)O)Cc1ccccc1O)Cc1ccccc1O` [HBED, N,N′-bis(2-hydroxybenzyl)ethylenediamine-N,N′-diacetic acid, reference compound], for which, in data set [2] (setting [9]), the “FeHL” value was 1.87 (4) and the “FeLH−1 (protonation constant of the Fe(III) complex)” value was 12.3 (1). In addition, the “r1 of Fe(III) complex” value in data set [6] is 0.49 mM⁻¹ s⁻¹.
Consider `O=C(O)CN1CCN(CC(=O)O)CCN(CC(=O)O)CC1` [NOTA, reference compound], for which the “FeLH−1 (protonation constant of the Fe(III) complex)” value in data set [2] (setting [9]) is recorded as 9.12 (4). For the same molecule, in data set [3] (setting [8]), the “kd” value is 4.0 × 10^−9 s^−1.
